Measured values: patent publication US5109024A, “Polyamine derivatives as antineoplastic agents” (Merrell Dow Pharmaceuticals Inc., priority 1991, dated 1992)
Where a name gives a salt, the structure may show the parent alone. Read-outs that look alike come from different tables or passages of the source.

What was measured:
L1210 leukemia [1] = assay: animal or person; type: in vivo, mice (BDFl male); conditions: Mus musculus, L1210, ip, 10 mg/Kg/day, read-out: % T/C (mean survival time treated/mean survival time control ×100)
Experimental: The following study of the antitumor activity of the compounds of formula (I) against L1210 leukemia illustrates this aspect of the present invention.
Groups of 6 mice (BDFl male) were inoculated i.p. with 10^5 L1210 leukemia cells on day 0. Test compounds or vehicle (Control group) were administered at the indicated doses starting on day 1 and continuing through day 5 or 9. Relative survival time was determined and expressed as % T/C (mean survival time treated/mean survival time control ×100). Presence or absence of delayed toxicity was determined by an examination o the animal's external appearance and behavior during the study. For example, an emaciated condition is a key indication of delayed toxicity in these studies.

L1210 leukemia [2] = conditions: 6.25 mg/Kg × 4 doses per day, days 3 thru 7, n=6, Edwards et al., cited from earlier work
L1210 leukemia [3] = assay: Curative Effect Against Advanced L1210 Leukemia (survival, cures); type: in vivo, mice (BDFl male); conditions: for Cured (mice surviving beyond day 45) / Survival in days (Mean ± S.E.): n=5
Experimental: In an additional study, groups of 5 mice (BDFl male) were inoculated i.p. with 10^5 L1210 leukemia cells on day 0. N,N'-bis[3-(ethylamino)propyl]-1,7-diaminoheptane or vehicle (Control group) were administered at the indicated doses and on the indicated days. […] In a similar study, N,N'-bis[3-(amino)propyl]-1,8-diaminooctane, administered at a dose of […] on days 3 through 7, provided a %T/C of 350 but no cures in 6 animals [Edwards et al., J. Med. Chem. 33, 1369 (1990), See Table II infra].

[4] = system: MCA-38 colon adenocarcinoma cells; assay: Experimental Murine Liver Metastasis (MCA-38 colon adenocarcinoma cells injected intrasplenically); type: in vivo, C57BL/6 mice; conditions: i.p., day 14; for Liver Metastasis No. foci ± S.E.: n = 6, p < 0.001, control 220.6 ± 22.2
Experimental: C57BL/6 mice were injected intrasplenically on day 0 with MCA-38 colon adenocarcinoma cells (1×10^5) so as to induce hepatic metastasis. Liver metastatic foci were determined as described by Bowlin et al. [Cancer Res. 50, 5460 (1990)]. Briefly, injected animals were randomly allocated to one of three treatment groups, 6 animals per group, and test compound or vehicle (Control) was administered i.p. at the doses and times indicated in Table 3. Liver metastatic foci were determined on day 14.

[5] = system: 3LL (Lewis lung) carcinoma cells; assay: Experimental Murine Lung Metastasis (3LL Lewis lung carcinoma cells injected into footpad); type: in vivo, C57BL/6 mice
Experimental: C57BL/6 mice were injected into the footpad on day 0 with 3LL (Lewis lung) carcinoma cells (1×10^6) so as to induce lung metastasis. Lung metastatic foci were determined as described by Sunkara et al. [J.Biological Response Modifiers 8, 170 (1989)]. Briefly, injected animals were randomly allocated to one of two treatment groups, 6 animals per group, and test compound or vehicle (Control) was administered i.p. at the doses and times indicated in Table 4. Lung metastatic foci were determined on day 18.

[6] = 5 mg/Kg × 4 doses per day, days 3, 4, 5
[7] = 5 mg/Kg × 4 doses per day, days 3, 4
[8] = 10 mg/Kg × 4 doses per day, days 3, 4

NCCCNCCCCCCCCNCCCN [Compound 26547, N,N'-bis[3-(amino)propyl]-1,8-diaminooctane]
response vs control in vivo at 10 mg/kg (L1210 leukemia [1]; days 1-9): 171%
% T/C (L1210 leukemia [2]; J. Med. Chem. 33, 1369 (1990)): 350%
Cured (L1210 leukemia [2]; J. Med. Chem. 33, 1369 (1990)): 0/6
Cured (L1210 leukemia [2]; J. Med. Chem. 33, 1369 (1990), listed as N,N'-bis[3-(amino)propyl]-1,8-diaminooctane): no cures
Delayed toxicity (L1210 leukemia [2]): exhibited delayed toxicity

CNCCCNCCCCCCCCNCCCNC [Compound 27259, N,N'-Bis(3-(methylamino)propyl)-1,8-octanediamine tetrahydrochloride]
response vs control in vivo at 10 mg/kg (L1210 leukemia [1]; days 1-9): 172%

CCNCCCNCCCCCCCCNCCCNCC [Compound 27393, N,N'-Bis(3-(ethylamino)propyl)-1,8-octanediamine tetrahydrochloride]
response vs control in vivo at 10 mg/kg (L1210 leukemia [1]; days 1-9): 112%

CNCCCNCCCCCCCNCCCNC [Compound 28249, N,N'-bis[3-(methylamino)propyl]-1,7-diaminoheptane]
response vs control in vivo at 10 mg/kg (L1210 leukemia [1]; days 1-5): 110%

CCNCCCNCCCCCCCNCCCNCC [Compound 28314, N,N'-Bis[3-(ethylamino)propyl]-1,7-heptanediamine]
response vs control in vivo at 10 mg/kg (L1210 leukemia [1]; days 1-5): 200%
Cured (mice surviving beyond day 45) (L1210 leukemia [3]; [6]): 5/5
Survival in days (Mean ± S.E.) (L1210 leukemia [3]; [6]): > 45 days
Cured (mice surviving beyond day 45) (L1210 leukemia [3]; [7]): 0/5
Survival in days (Mean ± S.E.) (L1210 leukemia [3]; [7]): 16.0 ± 4.0 days
Cured (mice surviving beyond day 45) (L1210 leukemia [3]; [8]): 5/5
Survival in days (Mean ± S.E.) (L1210 leukemia [3]; [8]): > 45 days
Curative effect against L1210 leukemia in vivo (L1210 leukemia [3]; at 20 and 40 mg/Kg/day): effective in providing a curative effect
Liver Metastasis % Inhibition ([4]; days 1-5, 5 mg/Kg): 87%
Liver Metastasis No. foci ± S.E. ([4]; days 1-5, 5 mg/Kg): 29.2 ± 7.7 foci
Liver Metastasis % Inhibition ([4]; days 3-8, 5 mg/Kg): 72%
Liver Metastasis No. foci ± S.E. ([4]; days 3-8, 5 mg/Kg): 62.3 ± 17.5 foci
Lung Metastasis % Inhibition ([5]; days 1-5, 10 mg/Kg, i.p., day 18): 100%
Lung Metastasis No. foci ± S.E. ([5]; days 1-5, 10 mg/Kg, i.p., day 18, n = 6, control 21.3 ± 11.5): 0 foci
antimetastatic effect in inhibiting lung metastasis ([5]; results as presented in Table 4): antimetastatic effect

CC(N)CCNCCCCCCCNCCC(C)N (centres unmarked) [Compound 28516, N,N'-bis[3-(amino)butyl]-1,7-diaminoheptane, reference compound]
response vs control in vivo at 10 mg/kg (L1210 leukemia [1]; days 1-5): 200%

CNCC(C)CNCCCCCCCNCC(C)CNC (centres unmarked) [Compound 28600, N,N'-bis[3-(methylamino)-2-(methyl)propyl]-1,7-diaminoheptane]
response vs control in vivo at 10 mg/kg (L1210 leukemia [1]; days 1-5): 132%

CNC(C)CCNCCCCCCCNCCC(C)NC (centres unmarked) [Compound 101060, N,N'-Bis[3-(methylamino)butyl]-1,7-diaminoheptane tetrahydrochloride]
response vs control in vivo at 10 mg/kg (L1210 leukemia [1]; days 1-5): 180%
